PubChem BioAssay (NCI)
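Interpolation was linear, between the two tested concentrations surrounding the appropriate level; five concentrations were tested over 48 hours in 96-well plates. TGI: total growth inhibition.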

Tests used:
Assay in all cases: growth of human tumour cells (NCI), 48 h
HS 578T breast = tested on: HS 578T breast
SK-MEL-5 melanoma = tested on: SK-MEL-5 melanoma
OVCAR-3 ovarian = tested on: OVCAR-3 ovarian
NCI/ADR-RES ovarian = tested on: NCI/ADR-RES ovarian
UO-31 renal = tested on: UO-31 renal
A549 NSCLC = tested on: A549 NSCLC
ACHN renal = tested on: ACHN renal
SF-539 CNS = tested on: SF-539 CNS
SK-MEL-2 melanoma = tested on: SK-MEL-2 melanoma
RPMI-8226 leukemia = tested on: RPMI-8226 leukemia

Structure (SMILES)	TGI (HS 578T breast) [µM]	TGI (SK-MEL-5 melanoma) [µM]	TGI (OVCAR-3 ovarian) [µM]	TGI (NCI/ADR-RES ovarian) [µM]	TGI (UO-31 renal) [µM]	TGI (A549 NSCLC) [µM]	TGI (ACHN renal) [µM]	TGI (SF-539 CNS) [µM]	TGI (SK-MEL-2 melanoma) [µM]	TGI (RPMI-8226 leukemia) [µM]
CCOC(=O)c1cc2c(OC(C)=O)ccc(OC(C)=O)c2s1	5.51	6.69	3.15	5.79	2.76	28.6	2.98	3.36	7.72	–
COc1cc([C@@H]2c3cc4c(cc3[C@@H](NC(=O)c3ccc(N)cc3)C3COC(=O)[C@@H]32)OCO4)cc(OC)c1O (stereo partly drawn)	–	21.6	30.4	–	31.1	12.8	4.9	3.87	28.3	20.2
COc1cc(C2C3=C(CCC3=O)Oc3cc4c(cc32)OCO4)cc(OC)c1OC (stereo not drawn)	–	15.2	0.381	–	> 100	> 100	62.3	–	–	–
O=[N+]([O-])c1cccc([N+](=O)[O-])c1S(=O)(=O)c1ccccc1	43.9	28.3	5.5	31.4	3.5	41.8	3.92	30.2	–	3.68
O=c1[nH]c(=O)n(C2OC(COP(=O)(O)OP(=O)(O)O)C(O)C2O)cc1F (stereo not drawn)	–	> 50	> 50	–	20.4	> 41.4	> 44.7	17.2	> 50	> 50
O=C(C1=C(C(=O)c2ccccc2)SC2(S1)C(C(=O)c1ccccc1)=C(C(=O)c1ccccc1)Sc1c2ssc1=O)c1ccccc1	> 100	> 100	> 100	> 100	> 100	> 100	> 100	57.6	> 100	–
COc1cccc(NC(=O)CSc2nnc(-c3ccc(N=Cc4ccc(Cl)cc4)cc3)o2)c1	–	34.6	–	–	32.7	69.6	30.3	–	39.8	65.1
N#CCCC1C(C#N)C2CC1C1C3C=CC(C3)C21 (stereo not drawn)	> 100	> 100	> 100	> 100	> 100	> 100	> 100	–	> 100	> 100
NC(Cc1cc(I)c(O)c(I)c1)C(=O)O (stereo not drawn)	–	> 500	> 500	> 316	> 500	> 500	–	> 500	> 500	> 500
O=S1(=O)NNC(=NCc2ccc(Cl)cc2)c2ccccc21	–	> 100	> 100	–	> 100	> 100	> 100	> 100	> 100	> 100
CCc1nnc(-n2c(C)nc3cc(Cl)ccc3c2=O)s1	> 100	65.9	43	> 100	> 100	> 100	> 100	–	–	–
CN(CCc1ccc(Cl)c(Cl)c1)[C@H]1CCCC[C@H]1N1CCCC1	> 100	> 100	> 100	> 100	> 100	> 100	> 100	–	> 100	> 100
CC1=CC(O)C(O)C2(C)C1CC1OC(=O)C(O)C3C(C)C(O)C4(O)OCC13C42 (stereo not drawn)	–	142	121	> 625	518	387	–	237	196	108
